Measurements as given in PubChem BioAssay (NCI).
Several values for one entry are separate records, joined by “and”; a condition that tells them apart may be missing. Equal values may be shown once.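 These data come from cells grown in 96-well plates and exposed to compound for 48 hours at five concentrations. GI50 = concentration required for 50% inhibition of growth. TGI marks complete inhibition of growth.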

Test system: HOP-62 NSCLC
Test: NCI-60 cell line screen, 48 h

Row | SMILES | TGI | GI50
1 | Cc1ccc(N(C(=O)CC(=O)NN)C(=O)c2ccccc2Cl)cc1 | > 100 µM | 
2 | CCN(CC)c1sc(N(CC)CC)c2c1SSSSS2 | 4.99 µM | 2.61 µM
3 | O=C(c1cccc(O)c1O)c1cn(Cc2ccc(F)cc2)c2cccc(O)c12 | 19.5 µM | 5.41 µM
4 | Nc1ncc(-c2cnn(CCO)c2)c2scc(-c3ccc(NC(=O)Nc4cccc(F)c4)cc3)c12 | 2.71 µM | 0.418 µM
5 | COc1cc(C2=NN(C(C)=O)C(c3ccc(OC(C)=O)cc3OC(C)=O)O2)c(OC(C)=O)c2ccccc12 (centres undefined) | 14.6 µM | 0.565 µM
6 | COc1cc(OC(=O)c2c(O)cc(O)c(O)c2C)cc(C)c1C(=O)Oc1cc(C)c(C(=O)O)c(O)c1 | > 100 µM | 
7 | COC(=O)Nc1nc2ccc(Oc3ccc(NC(=O)Nc4ccccc4)cc3)cc2[nH]1 | 2.52 µM | 0.109 µM
8 | CN(C)P(=O)(/C(N)=N/Nc1ccc([N+](=O)[O-])cc1)N(C)C | > 100 µM | 
9 | CC(=O)OC1CC(O)C23COC(O)C1(C)C2CC(O)C1(C)C3C(=O)C(O)C2(C)C(c3ccoc3)CC3OC321 (centres undefined) | > 100 µM | 0.685 µM
10 | Cn1cc(C(=O)c2ccccc2)ccc1=O | > 100 µM | 
11 | CCCCCCCC(CC(=O)NC(CO)C(=O)NC(CO)CC(C)C)OC(=O)CC(CCCCCCC)OC(=O)CC(CCCCCCC)OC1OC(C)C(O)C(OC2OC(C)C(O)C(OC(C)=O)C2O)C1O (centres undefined) | 24.8 µM | 
12 | COc1ccc(C(C)c2cc3c(cc2OC)OCO3)cc1 (centres undefined) | > 46.2 µM | 
13 | CCc1[nH]c(=O)nc(N)c1-c1ccc(N2CCCCC2)c([N+](=O)[O-])c1 | > 100 µM | 
14 | CCC#CC[C@H]1C/C=C2/C(=O)C=C[C@@H]2C/C=C\CCCC(=O)O1 | 3.26 µM | 1.02 µM
15 | CCN(CC)CCN1CC(O)=C(c2nc(-c3ccc(Cl)cc3)cs2)C1=N | 3.99 µM | 1.83 µM

Test system: CCRF-CEM leukemia
Test: NCI-60 cell line screen, 48 h

Row | SMILES | TGI | GI50
16 | COc1ccc2c(c1)C=C([N+](=O)[O-])C(C1OC(C)(C)OC1C1COC(C)(C)O1)O2 (centres undefined) | 4.2 µM | 
17 | CC(C)(C)OC(=O)Cc1ccc2c(ccn2Cc2ccccc2)c1 | > 100 µM | 
18 | NC(N)=NCCCn1c2c(c3ccccc3c1=O)C(=O)c1ccccc1-2 | > 100 µM | 19.9 µM
19 | CCC1(O)C(=O)OCc2c1cc1n(c2=O)Cc2cc3ccc(C=O)cc3nc2-1 (centres undefined) | 0.37 µM and 1.14 µM | 0.052 µM
20 | CC(C)N(C(=O)C12CC3CC(CC(C3)C1)C2)C(C)C | > 50 µM | 
21 | CC1(C)C2CC(O)C1(C)CC2=O (centres undefined) | > 100 µM | 
22 | COc1ccc2c(c1)C(=O)c1c-2n(CCCn2ccnc2)c(=O)c2ccccc12 | 24.8 µM | 0.213 µM
23 | COc1cc2oc(-c3ccc(O)cc3)cc(=O)c2c(OC)c1OC | > 100 µM | 
24 | N#Cc1nc(C2OC(COC(=O)c3ccccc3)C(OC(=O)c3ccccc3)C2OC(=O)c2ccccc2)oc1N (centres undefined) | 34.6 µM | 
25 | CC/C=C\C[C@@H]1C/C=C2/C(=O)C=C[C@H]2C/C=C\CCCC(=O)O1 | 1.58 µM | 0.24 µM
26 | Cc1ccc(S(=O)(=O)n2c(-c3ccccc3)c(-c3ccccc3)c3ccccc32)cc1 | > 100 µM | 
27 | O=C(N/N=C/c1cccc(O)c1O)c1ccccc1 | > 59.7 µM | 0.244 µM
28 | CN/N=C(/CCN1CCCC1)CC(c1ccccc1)c1c(O)c2ccccc2oc1=O (centres undefined) | > 100 µM | 
29 | COc1ccc2c(c1)CCC1C3(CCCC21C)OCCO3 (centres undefined) | 40.6 µM | 
30 | COc1ccc(OC)c(/C=C/C(=O)N/N=C/c2ccc(Cl)cc2)c1 | > 100 µM | 0.141 µM
31 | COc1ccc(C(=O)c2cc(C)c(OC)c(C)c2)c(OC)c1N(C(=O)C(Cl)Cl)C(=O)C(Cl)Cl | > 100 µM | 0.0626 µM

Row | SMILES | TGI | GI50
32 | Cc1ccc(N(C(=O)CC(=O)NN)C(=O)c2ccccc2Cl)cc1 | > 100 µM | 
33 | CCN(CC)c1sc(N(CC)CC)c2c1SSSSS2 | 1.24 µM | 0.359 µM
34 | O=C(c1cccc(O)c1O)c1cn(Cc2ccc(F)cc2)c2cccc(O)c12 | 6.44 µM | 0.861 µM
35 | Nc1ncc(-c2cnn(CCO)c2)c2scc(-c3ccc(NC(=O)Nc4cccc(F)c4)cc3)c12 | 5.01 µM | < 0.01 µM
36 | COc1cc(C2=NN(C(C)=O)C(c3ccc(OC(C)=O)cc3OC(C)=O)O2)c(OC(C)=O)c2ccccc12 (centres undefined) | 8.03 µM | 0.338 µM
37 | COc1cc(OC(=O)c2c(O)cc(O)c(O)c2C)cc(C)c1C(=O)Oc1cc(C)c(C(=O)O)c(O)c1 | > 100 µM | 
38 | COC(=O)Nc1nc2ccc(Oc3ccc(NC(=O)Nc4ccccc4)cc3)cc2[nH]1 | > 8.59 µM | 0.123 µM
39 | CN(C)P(=O)(/C(N)=N/Nc1ccc([N+](=O)[O-])cc1)N(C)C | > 100 µM | 
40 | CC(=O)OC1CC(O)C23COC(O)C1(C)C2CC(O)C1(C)C3C(=O)C(O)C2(C)C(c3ccoc3)CC3OC321 (centres undefined) | > 100 µM | < 0.0162 µM
41 | Cn1cc(C(=O)c2ccccc2)ccc1=O | > 100 µM | 
42 | CCCCCCCC(CC(=O)NC(CO)C(=O)NC(CO)CC(C)C)OC(=O)CC(CCCCCCC)OC(=O)CC(CCCCCCC)OC1OC(C)C(O)C(OC2OC(C)C(O)C(OC(C)=O)C2O)C1O (centres undefined) | 21.4 µM | 
43 | COc1ccc(C(C)c2cc3c(cc2OC)OCO3)cc1 (centres undefined) | > 66.2 µM | 
44 | CCc1[nH]c(=O)nc(N)c1-c1ccc(N2CCCCC2)c([N+](=O)[O-])c1 | > 100 µM | 
45 | CCC#CC[C@H]1C/C=C2/C(=O)C=C[C@@H]2C/C=C\CCCC(=O)O1 | 5 µM | 0.791 µM
46 | CCN(CC)CCN1CC(O)=C(c2nc(-c3ccc(Cl)cc3)cs2)C1=N | 4.99 µM | 2 µM

Test system: HCT-116 colon
Test: NCI-60 cell line screen, 48 h

Row | SMILES | TGI | GI50
47 | COc1ccc2c(c1)C=C([N+](=O)[O-])C(C1OC(C)(C)OC1C1COC(C)(C)O1)O2 (centres undefined) | 4.04 µM | 
48 | CC(C)(C)OC(=O)Cc1ccc2c(ccn2Cc2ccccc2)c1 | > 100 µM | 
49 | NC(N)=NCCCn1c2c(c3ccccc3c1=O)C(=O)c1ccccc1-2 | 45.6 µM | 22.3 µM
50 | CCC1(O)C(=O)OCc2c1cc1n(c2=O)Cc2cc3ccc(C=O)cc3nc2-1 (centres undefined) | 7.29 µM and 16.4 µM | 0.519 µM
51 | CC(C)N(C(=O)C12CC3CC(CC(C3)C1)C2)C(C)C | > 50 µM | 
52 | CC1(C)C2CC(O)C1(C)CC2=O (centres undefined) | > 100 µM | 
53 | COc1ccc2c(c1)C(=O)c1c-2n(CCCn2ccnc2)c(=O)c2ccccc12 | 0.74 µM | 0.235 µM
54 | COc1cc2oc(-c3ccc(O)cc3)cc(=O)c2c(OC)c1OC | > 100 µM | 
55 | N#Cc1nc(C2OC(COC(=O)c3ccccc3)C(OC(=O)c3ccccc3)C2OC(=O)c2ccccc2)oc1N (centres undefined) | > 100 µM | 
56 | CC/C=C\C[C@@H]1C/C=C2/C(=O)C=C[C@H]2C/C=C\CCCC(=O)O1 | 0.32 µM | 0.133 µM
57 | Cc1ccc(S(=O)(=O)n2c(-c3ccccc3)c(-c3ccccc3)c3ccccc32)cc1 | > 100 µM | 
58 | O=C(N/N=C/c1cccc(O)c1O)c1ccccc1 | > 100 µM | 0.388 µM
59 | CN/N=C(/CCN1CCCC1)CC(c1ccccc1)c1c(O)c2ccccc2oc1=O (centres undefined) | > 100 µM | 
60 | COc1ccc2c(c1)CCC1C3(CCCC21C)OCCO3 (centres undefined) | 30.5 µM | 
61 | COc1ccc(OC)c(/C=C/C(=O)N/N=C/c2ccc(Cl)cc2)c1 |  | 0.0571 µM
62 | COc1ccc(C(=O)c2cc(C)c(OC)c(C)c2)c(OC)c1N(C(=O)C(Cl)Cl)C(=O)C(Cl)Cl | > 58.8 µM | 0.0772 µM

Row | SMILES | TGI | GI50
63 | Cc1ccc(N(C(=O)CC(=O)NN)C(=O)c2ccccc2Cl)cc1 | > 100 µM | 
64 | CCN(CC)c1sc(N(CC)CC)c2c1SSSSS2 | 1.14 µM | 0.356 µM
65 | O=C(c1cccc(O)c1O)c1cn(Cc2ccc(F)cc2)c2cccc(O)c12 | 17.1 µM | 3.28 µM
66 | Nc1ncc(-c2cnn(CCO)c2)c2scc(-c3ccc(NC(=O)Nc4cccc(F)c4)cc3)c12 | 3.18 µM | 0.206 µM
67 | COc1cc(C2=NN(C(C)=O)C(c3ccc(OC(C)=O)cc3OC(C)=O)O2)c(OC(C)=O)c2ccccc12 (centres undefined) | 12.2 µM | 0.346 µM
68 | COc1cc(OC(=O)c2c(O)cc(O)c(O)c2C)cc(C)c1C(=O)Oc1cc(C)c(C(=O)O)c(O)c1 | > 100 µM | 
69 | COC(=O)Nc1nc2ccc(Oc3ccc(NC(=O)Nc4ccccc4)cc3)cc2[nH]1 | > 10.4 µM | 0.119 µM
70 | CN(C)P(=O)(/C(N)=N/Nc1ccc([N+](=O)[O-])cc1)N(C)C | > 100 µM | 
71 | CC(=O)OC1CC(O)C23COC(O)C1(C)C2CC(O)C1(C)C3C(=O)C(O)C2(C)C(c3ccoc3)CC3OC321 (centres undefined) | > 100 µM | < 0.01 µM
72 | Cn1cc(C(=O)c2ccccc2)ccc1=O | > 100 µM | 
73 | CCCCCCCC(CC(=O)NC(CO)C(=O)NC(CO)CC(C)C)OC(=O)CC(CCCCCCC)OC(=O)CC(CCCCCCC)OC1OC(C)C(O)C(OC2OC(C)C(O)C(OC(C)=O)C2O)C1O (centres undefined) | 25.8 µM | 
74 | COc1ccc(C(C)c2cc3c(cc2OC)OCO3)cc1 (centres undefined) | 46.3 µM | 
75 | CCc1[nH]c(=O)nc(N)c1-c1ccc(N2CCCCC2)c([N+](=O)[O-])c1 | > 100 µM | 
76 | CCC#CC[C@H]1C/C=C2/C(=O)C=C[C@@H]2C/C=C\CCCC(=O)O1 | 2.61 µM | 0.43 µM
77 | CCN(CC)CCN1CC(O)=C(c2nc(-c3ccc(Cl)cc3)cs2)C1=N | 4.16 µM | 1.78 µM
